Like-named read-outs stand apart in the source and are kept apart here.
Assays:
[1] = Antioxidant capacity, Folin-Ciocalteu method; conditions: 0.3 to 10 mg/ml, versus porphyra-334
Vero E6 fibroblasts = assay: Cellular toxicity in Vero E6 fibroblasts; assay type: cell-based; conditions: compared to oxybenzone
Source text: (§1) The cellular toxicity of gadusol was compared to that of a common sunscreen ingredient, oxybenzone. Vero E6 fibroblasts were used to evaluate toxicity.

Ames test (mutagenicity) = assay type: cell-based
[2] = Storage stability of gadusol; assay type: physicochemical; conditions: after 90 days at pH 2.5
Source text: Addition of an antioxidant could be helpful in increasing the shelf life of gadusol. The stability of gadusol is much higher when stored under acidic conditions. For example, 90% activity was retained after 90 days at pH 2.5. Therefore, storage under acidic conditions may be useful for stabilizing gadusol generally, e.g., prior to introduction into a topical formulation. Combining gadusol with another antioxidant may be useful for extending the shelf life or stability of gadusol in a topical formulation. Storage of gadusol in nitrogen-purged solutions in containers with minimal headspace increased its stability.

Comet assay = assay type: cell-based
Source text: as §1

cells = assay: In vivo antioxidant testing (intracytoplasmic activity in cells); assay type: cell-based; conditions: for lysis of the cells: highest dose 3.3 mg/ml
Procedure: The test is designed to measure antioxidant power but requires also that the anti-oxidant agent cross the cell's lipid boundary layer so that only intracytoplasmic activity is measured. […] Some activity was seen even at concentrations below 0.1 mg/ml.

E. coli = assay: Toxicity towards E. coli; assay type: cell-based
[3] = cited from earlier work
[4] = UV absorbance (absorption maximum, molar extinction coefficient); assay type: physicochemical; conditions: for UV maximum: under acidic conditions
Source text: Gadusol, gadusporine A 100, gadusporine, B 102, and gadusporine C 104 may be isolated by column purification of Streptomyces coelicolor culture broth (as described in the above publication).
Despite the only difference being a hydroxy group, there are a few notable differences between shinorine and gadusporine A 100. Shinorine has been reported to have an absorption max=330 nm at pH 1.7 and an absorption max=334 nm at pH 7. […] Gadusporine A 100 has a molar extinction coefficient (□□=49,400, as measured in 50 mM phosphate buffer at pH 7.0, which is slightly higher than that of shinorine (□□=44,000), and thus has stronger UV absorbance activity.

Solubility in methanol = assay type: physicochemical
Source text: Gadusporine B 102 contains L-alanine and glycine, making gadusporine B 102 an analog of mycosporine-glycine-alanine.

## COC1=C(O)CC(O)(CO)C(O)C1=O (stereo not shown) [Gadusol]
[1]
  antioxidant power: equivalent to a mycosporine compound
Vero E6 fibroblasts
  cellular toxicity: less toxic than oxybenzone
Ames test (mutagenicity)
  mutagenicity: not to be mutagenic
[2]
  activity retained: 90%
Comet assay
  toxicity in comet assay: nor toxic in the comet assay
cells; at about 1 mg/ml, versus the mycosporine
  in vivo antioxidant activity: significantly more active antioxidant
cells
  lysis of the cells: some lysis of the cells
cells; overall, compared with porphyra-334
  in vivo antioxidant activity: outperformed porphyra-334
E. coli
  toxicity towards E. coli: nor toxic towards E. coli

## COC1=C(NCC(=O)O)C[C@@](O)(CO)C/C1=N\[C@@H](CO)C(=O)O [Shinorine]
[3]; pH 1.7, reported
  absorption max: 330 nm
[3]; pH 7, reported
  absorption max: 334 nm
[3]; shinorine comparison value
  molar extinction coefficient: 44,000

## COC1=C(NCC(=O)O)C[C@@](O)(CO)CC1=N[C@H](C(=O)O)[C@@H](C)O [porphyra-334, reference compound]
cells
  lysis of the cells: some lysis of the cells

## Gadusporine A
[4]; 50 mM phosphate buffer at pH 7.0, in M-1 cm-1 (unit assumed)
  molar extinction coefficient: 49,400
[4]; pH 2.0
  absorption max: 338
[4]; pH 7.0
  absorption max: 340 nm
[4]
  UV maximum: 338 nm

## Gadusporine B
[4]
  UV maximum: 338 nm
Solubility in methanol
  solubility in methanol: not very soluble in methanol

Reference: patent US20240148623A1, “GADUSOL AND GADUSPORINE COMPOUND FORMULATIONS FOR TOPICALS” (GADUSOL LABORATORIES, INC., priority 2021, published 2024)
